Data reported in patent US8679495B2, “Use of anti-90K monoclonal antibodies for the prevention and treatment of tumors and metastases thereof” (MediaPharma S.r.l., priority 2009, dated 2014).

Test system: human breast cancer cell MDA-MD-231
Experiment: Tumor growth of breast cancer cells injected subcutaneously in nude mice
Assay type: in vivo
Settings: MDA-MD-231 in nude mice, intraperitoneal, SP-2 10 μg/kg twice a week, docetaxel 7.5 mg/kg once a week, up to 44 days
Method: Materials and methods: Nude mice were injected subcutaneously with 5×10^6 human breast cancer cell MDA-MD-231 (cells expressing 90K). One group was injected by intraperitoneal route with phosphate buffer and served as a control. Other groups were treated by intraperitoneal route with SP-2 antibody at a dose of 10 μg/kg twice a week, or a control IgG at the same dose, or with docetaxel at a dose of 7.5 mg/kg once a week, or with a combination of SP-2 and docetaxel. Tumor growth was followed up by measuring lesion diameters up to 44 days after injection. Each group, control and treated, consisted of 8 animals.

## CC(=O)O[C@@]12CO[C@@H]1C[C@H](O)[C@@]1(C)C(=O)[C@H](O)C3=C(C)[C@@H](OC(=O)[C@H](O)[C@@H](NC(=O)OC(C)(C)C)c4ccccc4)C[C@@](O)([C@@H](OC(=O)c4ccccc4)[C@H]21)C3(C)C [docetaxel]
  tumor growth in comparison with control group: significantly reduced tumor growth
